Data as given in patent US10519152B2, “Compounds and their use in treating cancer” (AstraZeneca AB, priority 2017, dated 2019).

biological target: T1, recombinant human Estrogen Receptor alpha ligand binding domain, residues 307-554 (ER alpha-LBD (GST)) (Homo sapiens, UniProt P03372); assay: ERα binding assay (LanthaScreen TR-FRET competition); details: TR-FRET competition with Fluormone ES2 tracer, 4 hours at room temperature; single experiment or average of two or more
T1 construct: made in house
T1 sequence (P03372 307-554): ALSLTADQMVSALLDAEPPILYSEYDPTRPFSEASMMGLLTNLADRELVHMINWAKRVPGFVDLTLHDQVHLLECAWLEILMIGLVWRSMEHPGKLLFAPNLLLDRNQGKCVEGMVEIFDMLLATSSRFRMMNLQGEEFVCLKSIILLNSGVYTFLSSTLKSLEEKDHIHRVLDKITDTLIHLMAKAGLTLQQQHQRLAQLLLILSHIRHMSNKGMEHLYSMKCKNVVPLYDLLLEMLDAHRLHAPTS

First: Cc1ncsc1-c1ccc(CNC(=O)[C@@H]2C[C@@H](O)CN2C(=O)[C@@H](NC(=O)COCCCCCOCCOc2ccc([C@@H]3c4[nH]c5ccccc5c4C[C@@H](C)N3CC(F)F)nc2)C(C)(C)C)cc1 [Example 10, (2S,4R)-1-((S)-2-(2-((5-(2-((6-((1S,3R)-2-(2,2-Difluoroethyl)-3-methyl-2,3,4,9-tetrahydro-1H-pyrido[3,4-b]indol-1-yl)pyridin-3-yl)oxy)ethoxy)pentyl)oxy)acetamido)-3,3-dimethylbutanoyl)-4-hydroxy-N-(4-(4-methylthiazol-5-yl)benzyl)pyrrolidine-2-carboxamide]
Second: Cc1ncsc1-c1ccc(CNC(=O)[C@@H]2C[C@@H](O)CN2C(=O)[C@@H](NC(=O)COCCOCCCCCOc2cnc([C@@H]3c4[nH]c5ccccc5c4C[C@@H](C)N3CC(C)(F)F)c(F)c2)C(C)(C)C)cc1 [Example 164, (2S,4R)-1-((S)-2-(2-(2-((5-((6-((1S,3R)-2-(2,2-Difluoropropyl)-3-methyl-2,3,4,9-tetrahydro-1H-pyrido[3,4-b]indol-1-yl)-5-fluoropyridin-3-yl)oxy)pentyl)oxy)ethoxy)acetamido)-3,3-dimethylbutanoyl)-4-hydroxy-N-(4-(4-methylthiazol-5-yl)benzyl)pyrrolidine-2-carboxamide]
The IC50 of the first is 5.9-fold higher: 39 nM for the first, 6.6 nM for the second. The second is the more potent here.

Compared with `Cc1ncsc1-c1ccc(CNC(=O)[C@@H]2C[C@@H](O)CN2C(=O)[C@@H](NC(=O)CCCOc2ccc(COc3cc(F)c([C@@H]4c5[nH]c6ccccc6c5C[C@@H](C)N4CC(C)(C)F)c(F)c3)nc2)C(C)(C)C)cc1` [Example 161, (2S,4R)-1-((S)-2-(4-((6-((3,5-Difluoro-4-((1R,3R)-2-(2-fluoro-2-methylpropyl)-3-methyl-2,3,4,9-tetrahydro-1H-pyrido[3,4-b]indol-1-yl)phenoxy)methyl)pyridin-3-yl)oxy)butanamido)-3,3-dimethylbutanoyl)-4-hydroxy-N-(4-(4-methylthiazol-5-yl)benzyl)pyrrolidine-2-carboxamide], `Cc1ncsc1-c1ccc(CNC(=O)[C@@H]2C[C@@H](O)CN2C(=O)[C@@H](NC(=O)CCCc2ccc(COc3cc(F)c([C@@H]4c5[nH]c6ccccc6c5C[C@@H](C)N4CC(C)(C)F)c(F)c3)nc2)C(C)(C)C)cc1` [Example 141, (2S,4R)-1-((S)-2-(4-(6-((3,5-Difluoro-4-((1R,3R)-2-(2-fluoro-2-methylpropyl)-3-methyl-2,3,4,9-tetrahydro-1H-pyrido[3,4-b]indol-1-yl)phenoxy)methyl)pyridin-3-yl)butanamido)-3,3-dimethylbutanoyl)-4-hydroxy-N-(4-(4-methylthiazol-5-yl)benzyl)pyrrolidine-2-carboxamide] is 1.7-fold higher in IC50: 0.7 nM for the first, 1.2 nM for the second.

`Cc1ncsc1-c1ccc(CNC(=O)[C@@H]2C[C@@H](O)CN2C(=O)[C@@H](NC(=O)CCCOCCCCCCOc2cc(F)c([C@@H]3c4[nH]c5ccccc5c4C[C@@H](C)N3CC(C)(C)F)c(F)c2)C(C)(C)C)cc1` [Example 112, (2S,4R)-1-((S)-2-(4-((6-(3,5-difluoro-4-((1R,3R)-2-(2-fluoro-2-methylpropyl)-3-methyl-2,3,4,9-tetrahydro-1H-pyrido[3,4-b]indol-1-yl)phenoxy)hexyl)oxy)butanamido)-3,3-dimethylbutanoyl)-4-hydroxy-N-(4-(4-methylthiazol-5-yl)benzyl)pyrrolidine-2-carboxamide] and `Cc1ncsc1-c1ccc(CNC(=O)[C@@H]2C[C@@H](O)CN2C(=O)[C@@H](NC(=O)CCCCCOCCCCOc2cc(F)c([C@@H]3c4[nH]c5ccccc5c4C[C@@H](C)N3CC(C)(C)F)c(F)c2)C(C)(C)C)cc1` [Example 109, (2S,4R)-1-((S)-2-(6-(4-(3,5-difluoro-4-((1R,3R)-2-(2-fluoro-2-methylpropyl)-3-methyl-2,3,49-tetrahydro-1H-pyrido[3,4-b]indol-1-yl)phenoxy)butoxy)hexanamido)-3,3-dimethylbutanoyl)-4-hydroxy-N-(4-(4-methylthiazol-5-yl)benzyl)pyrrolidine-2-carboxamide] are within 1.5-fold of each other in IC50: 0.5 nM for the first, 0.6 nM for the second.

Compared with `CC(=O)O[C@@H]1C[C@@H](C(=O)NCc2ccc(-c3scnc3C)cc2)N(C(=O)[C@@H](NC(=O)COCCOCCOCCOc2cc(F)c([C@@H]3c4[nH]c5ccccc5c4C[C@@H](C)N3CC(C)(C)F)c(F)c2)C(C)(C)C)C1` [Example 34, (3R,5S)-1-((S)-2-(tert-Butyl)-14-(3,5-difluoro-4-((1R,3R)-2-(2-fluoro-2-methylpropyl)-3-methyl-2,3,4,9-tetrahydro-1H-pyrido[3,4-b]indol-1-yl)phenoxy)-4-oxo-6,9,12-trioxa-3-azatetradecanoyl)-5-((4-(4-methylthiazol-5-yl)benzyl)carbamoyl)pyrrolidin-3-yl Acetate], `Cc1ncsc1-c1ccc(CNC(=O)[C@@H]2C[C@@H](O)CN2C(=O)[C@@H](NC(=O)COCCOCCCCOc2cc(F)c([C@@H]3c4[nH]c5ccccc5c4C[C@@H](C)N3CC(C)(C)F)c(F)c2)C(C)(C)C)cc1` [Example 128, (2S,4R)-1-((S)-2-(2-(2-(4-(3,5-Difluoro-4-((1R,3R)-2-(2-fluoro-2-methylpropyl)-3-methyl-2,3,4,9-tetrahydro-1H-pyrido[3,4-b]indol-1-yl)phenoxy)butoxy)ethoxy)acetamido)-3,3-dimethylbutanoyl)-4-hydroxy-N-(4-(4-methylthiazol-5-yl)benzyl)pyrrolidine-2-carboxamide] is 1.5-fold lower in IC50: 0.9 nM for the first, 0.6 nM for the second. The second is the more potent here.

First: Cc1ncsc1-c1ccc(CNC(=O)[C@@H]2C[C@@H](O)CN2C(=O)[C@@H](NC(=O)COCCCCCCOc2cc(F)c([C@@H]3c4[nH]c5ccccc5c4C[C@@H](C)N3CC(C)(C)F)c(F)c2)C(C)(C)C)cc1 [Example 51, (2S,4R)-1-((S)-2-(2-((6-(3,5-difluoro-4-((1R,3R)-2-(2-fluoro-2-methylpropyl)-3-methyl-2,3,4,9-tetrahydro-1H-pyrido[3,4-b]indol-1-yl)phenoxy)hexyl)oxy)acetamido)-3,3-dimethylbutanoyl)-4-hydroxy-N-(4-(4-methylthiazol-5-yl)benzyl)pyrrolidine-2-carboxamide]
Second: Cc1ncsc1-c1ccc(CNC(=O)[C@@H]2C[C@@H](O)CN2C(=O)[C@@H](NC(=O)COCCCCCOCCCOc2cc(F)c([C@@H]3c4[nH]c5ccccc5c4C[C@@H](C)N3CC(C)(C)F)c(F)c2)C(C)(C)C)cc1 [Example 136, (2S,4R)-1-((S)-2-(2-((5-(3-(3,5-Difluoro-4-((1R,3R)-2-(2-fluoro-2-methylpropyl)-3-methyl-2,3,4,9-tetrahydro-1H-pyrido[3,4-b]indol-1-yl)phenoxy)propoxy)pentyl)oxy)acetamido)-3,3-dimethylbutanoyl)-4-hydroxy-N-(4-(4-methylthiazol-5-yl)benzyl)pyrrolidine-2-carboxamide]
The IC50 of the first is 1.7-fold higher: 2 nM for the first, 1.2 nM for the second. The second is the more potent here.

First: Cc1ncsc1-c1ccc(CNC(=O)[C@@H]2C[C@@H](OC(=O)[C@@H]3CCCN3)CN2C(=O)[C@@H](NC(=O)CCCCCCCCCCOc2cc(F)c([C@@H]3c4[nH]c5ccccc5c4C[C@@H](C)N3CC(C)(C)F)c(F)c2)C(C)(C)C)cc1 [Example 33, (3R,5S)-1-((S)-2-(11-(3,5-Difluoro-4-((1R,3R)-2-(2-fluoro-2-methylpropyl)-3-methyl-2,3,4,9-tetrahydro-1H-pyrido[3,4-b]indol-1-yl)phenoxy)undecanamido)-3,3-dimethylbutanoyl)-5-((4-(4-methylthiazol-5-yl)benzyl)carbamoyl)pyrrolidin-3-yl L-prolinate]
Second: Cc1ncsc1-c1ccc(CNC(=O)[C@@H]2C[C@@H](O)CN2C(=O)[C@@H](NC(=O)CNCCCCCCCCOc2cc(F)c([C@@H]3c4[nH]c5ccccc5c4C[C@@H](C)N3CC(C)(C)F)c(F)c2)C(C)(C)C)cc1 [Example 147, (2S,4R)-1-((S)-2-(2-((8-(3,5-Difluoro-4-((1R,3R)-2-(2-fluoro-2-methylpropyl)-3-methyl-2,3,4,9-tetrahydro-1H-pyrido[3,4-b]indol-1-yl)phenoxy)octyl)amino)acetamido)-3,3-dimethylbutanoyl)-4-hydroxy-N-(4-(4-methylthiazol-5-yl)benzyl)pyrrolidine-2-carboxamide]
The IC50 of the first is 8.9-fold higher: 8.9 nM for the first, 1 nM for the second. The second is the more potent here.

`Cc1ncsc1-c1ccc(CNC(=O)[C@@H]2C[C@@H](O)CN2C(=O)[C@@H](NC(=O)COCc2ccnc(COc3cc(F)c([C@@H]4c5[nH]c6ccccc6c5C[C@@H](C)N4CC(C)(C)F)c(F)c3)c2)C(C)(C)C)cc1` [Example 134, (2S,4R)-1-((S)-2-(2-((2-((3,5-Difluoro-4-((1R,3R)-2-(2-fluoro-2-methylpropyl)-3-methyl-2,3,4,9-tetrahydro-1H-pyrido[3,4-b]indol-1-yl)phenoxy)methyl)pyridin-4-yl)methoxy)acetamido)-3,3-dimethylbutanoyl)-4-hydroxy-N-(4-(4-methylthiazol-5-yl)benzyl)pyrrolidine-2-carboxamide] and `Cc1ncsc1-c1ccc([C@H](C)NC(=O)[C@@H]2C[C@@H](O)CN2C(=O)[C@@H](NC(=O)COCCCOCCCCCOc2cc(F)c([C@@H]3c4[nH]c5ccccc5c4C[C@@H](C)N3CC(C)(C)F)c(F)c2)C(C)(C)C)cc1` [Example 137, (2S,4R)-1-((S)-2-(2-(3-((5-(3,5-Difluoro-4-((R,3R)-2-(2-fluoro-2-methylpropyl)-3-methyl-2,3,4,9-tetrahydro-1H-pyrido[3,4-b]indol-1-yl)phenoxy)pentyl)oxy)propoxy)acetamido)-3,3-dimethylbutanoyl)-4-hydroxy-N—((S)-1-(4-(4-methylthiazol-5-yl)phenyl)ethyl)pyrrolidine-2-carboxamide] are within 1.5-fold of each other in IC50: 0.6 nM for the first, 0.8 nM for the second.
